The text below walks through data of patent US12338220B2, “Antiviral pyrazolopiridinone compounds” (Novartis AG, priority 2019, dated 2025).

The subject of experiment [1] is CMV. In words: microbe, parasite or virus in culture. Particulars: Human betaherpesvirus 5, 72 h, read-out: CMV-Luc Cellular EC50, NN-NHDF cells, MOI 1, 72 hrs. It is filed as cell-based.
Experiment [2] has as its target CMV-polymerase (Human cytomegalovirus (strain AD169) (HHV-5) (Human herpesvirus 5), UniProt P08546). In words: biochemical.
The mark [3] stands for this setting: read-out: CMV-polymerase Biochemical IC50.
Where [4] appears, read: CMV-polymerase Biochemical IC50.

The structures appear in SMILES notation. Structures can show the parent of a compound that is named as a salt. Where two headings read alike, the source gives them in different places. A value given as a limit tells only on which side of the number the result lay.

In the case of `Cn1nc(C(=O)NCc2ccc(Cl)cc2)c2c1C(=O)N(CC1(S(=O)(=O)C(C)(C)[C@H](N)CO)CC1)CC2` [Example 214, (R)-6-((1-((3-Amino-4-hydroxy-2-methylbutan-2-yl)sulfonyl)cyclopropyl)methyl)-N-(4-chlorobenzyl)-1-methyl-7-oxo-4,5,6,7-tetrahydro-1H-pyrazolo[3,4-c]pyridine-3-carboxamide hydrochloride], the EC50 in experiment [1] was found to be 42 nM. The concentration for half-maximal inhibition (IC50) in experiment [2] (setting [3]) turned out to be 3 nM.
Consider `CN(C)CCOCC(C)(C)S(=O)(=O)C1(CN2CCc3c(C(=O)NCc4ccc(C#N)cc4)nn(C)c3C2=O)CC1` [Example 104, N-(4-Cyanobenzyl)-6-((1-((1-(2-(dimethylamino)ethoxy)-2-methylpropan-2-yl)sulfonyl)cyclopropyl)methyl)-1-methyl-7-oxo-4,5,6,7-tetrahydro-1H-pyrazolo[3,4-c]pyridine-3-carboxamide], for which the EC50 in experiment [1] stood at 21 nM. Moreover, the IC50 in experiment [2] (setting [3]) stood at 3 nM.
Consider `Cn1nc(C(=O)NCc2ccc(C#N)c(F)c2)c2c1C(=O)N(CC1(S(=O)(=O)C3CC3)CC1)CC2` [Example 9, N-(4-Cyano-3-fluorobenzyl)-6-((1-(cyclopropylsulfonyl)cyclopropyl)methyl)-1-methyl-7-oxo-4,5,6,7-tetrahydro-1H-pyrazolo[3,4-c]pyridine-3-carboxamide], for which the EC50 in experiment [1] was found to be 31 nM. For the same molecule, the IC50 in experiment [2] (setting [3]) amounted to 1 nM.
In the same order, the values of `Cn1nc(C(=O)NCc2ccc(C#N)cc2)c2c1C(=O)N(CC1(S(=O)(=O)N3CC[C@H](O)C3)CC1)CC2` [Example 127, (S)-N-(4-Cyanobenzyl)-6-((1-((3-hydroxypyrrolidin-1-yl)sulfonyl)cyclopropyl)methyl)-1-methyl-7-oxo-4,5,6,7-tetrahydro-1H-pyrazolo[3,4-c]pyridine-3-carboxamide] are 122 nM and 4 nM.
In the same order, the values of `Cn1nc(C(=O)NCc2ccc(C#N)cc2)c2c1C(=O)N(CC1(S(=O)(=O)N3CC[C@@H](N)C3)CC1)CC2` [Example 141, (R)-6-((1-((3-Aminopyrrolidin-1-yl)sulfonyl)cyclopropyl)methyl)-N-(4-cyanobenzyl)-1-methyl-7-oxo-4,5,6,7-tetrahydro-1H-pyrazolo[3,4-c]pyridine-3-carboxamide] are 51 nM and 13 nM.
Taken in the same sequence, the figures for `Cn1nc(C(=O)NCc2ccc(C#N)cc2)c2c1C(=O)N(CC1(S(=O)(=O)CC(C)(C)O)CC1)CC2` [Example 118, N-(4-Cyanobenzyl)-6-((1-((2-hydroxy-2-methylpropyl)sulfonyl)cyclopropyl)methyl)-1-methyl-7-oxo-4,5,6,7-tetrahydro-1H-pyrazolo[3,4-c]pyridine-3-carboxamide] were 327 nM and 19 nM.
Regarding `Cc1cc(C#N)ccc1CNC(=O)c1nn(C)c2c1CCN(CC1(S(=O)(=O)C3CC3)CC1)C2=O` [Example 12, N-(4-Cyano-2-methylbenzyl)-6-((1-(cyclopropylsulfonyl)cyclopropyl)methyl)-1-methyl-7-oxo-4,5,6,7-tetrahydro-1H-pyrazolo[3,4-c]pyridine-3-carboxamide], the EC50 in experiment [1] came out at 87 nM. Besides, in experiment [2] (setting [3]), the IC50 was found to be 2 nM.
As to `Cn1nc(-c2cn(Cc3ccc(C#N)cc3)nn2)c2c1C(=O)N(CC1(S(=O)(=O)C3CC3)CC1)CC2` [Example 35, 4-((4-(6-((1-(Cyclopropylsulfonyl)cyclopropyl)methyl)-1-methyl-7-oxo-4,5,6,7-tetrahydro-1H-pyrazolo[3,4-c]pyridin-3-yl)-1H-1,2,3-triazol-1-yl)methyl)benzonitrile], the EC50 in experiment [1] is 38 nM. The same molecule yielded an IC50 in experiment [2] (setting [4]) of 3 nM.
With `Cn1nc(-c2nnnn2Cc2ccc(C#N)cc2)c2c1C(=O)N(CC1(S(=O)(=O)C3CC3)CC1)CC2` [Example 30, 4-((5-(6-((1-(cyclopropylsulfonyl)cyclopropyl)methyl)-1-methyl-7-oxo-4,5,6,7-tetrahydro-1H-pyrazolo[3,4-c]pyridin-3-yl)-1H-tetrazol-1-yl)methyl)benzonitrile], the EC50 in experiment [1] is above 10000 nM. Moreover, the IC50 in experiment [2] (setting [3]) was determined as 940 nM.
Regarding `CN(C)/C=N/S(=O)(=O)C1(CN2CCc3c(C(=O)NCc4ccc(Cl)cc4)nn(C)c3C2=O)CC1` [Example 122, (E)-N-(4-chlorobenzyl)-6-((1-(N-((dimethylamino)methylene)sulfamoyl)cyclopropyl)methyl)-1-methyl-7-oxo-4,5,6,7-tetrahydro-1H-pyrazolo[3,4-c]pyridine-3-carboxamide], in experiment [1], the EC50 was determined as 298 nM. Also, in experiment [2] (setting [3]), the IC50 amounted to 7 nM.
In the case of `N#Cc1ccc(CNC(=O)c2nn(CC3(O)CC3)c3c2CCN(CC2(S(=O)(=O)C4CC4)CC2)C3=O)cc1` [Example 228, N-(4-Cyanobenzyl)-6-((1-(cyclopropylsulfonyl)cyclopropyl)methyl)-1-((1-hydroxycyclopropyl)methyl)-7-oxo-4,5,6,7-tetrahydro-1H-pyrazolo[3,4-c]pyridine-3-carboxamide], the EC50 in experiment [1] was determined as 51 nM. Further, the IC50 in experiment [2] (setting [4]) was 2 nM.
`CC(C)(O)Cn1nc(C(=O)NCc2ccc(C#N)cc2)c2c1C(=O)N(CC1(S(=O)(=O)C(C)(C)CO)CC1)CC2` [Example 235, N-(4-Cyanobenzyl)-6-((1-((1-hydroxy-2-methylpropan-2-yl)sulfonyl)cyclopropyl)methyl)-1-(2-hydroxy-2-methylpropyl)-7-oxo-4,5,6,7-tetrahydro-1H-pyrazolo[3,4-c]pyridine-3-carboxamide]: in experiment [1], the EC50 is 31 nM. Also, the IC50 in experiment [2] (setting [3]) came out at 1 nM.
In the same order, the values of `CC(C)(CO)S(=O)(=O)C1(CN2CCc3c(C(=O)NCc4ccc(C#N)cc4)nn(CCOCCBr)c3C2=O)CC1` [Example 238, 1-(2-(2-bromoethoxy)ethyl)-N-(4-cyanobenzyl)-6-((1-((1-hydroxy-2-methylpropan-2-yl)sulfonyl)cyclopropyl)methyl)-7-oxo-4,5,6,7-tetrahydro-1H-pyrazolo[3,4-c]pyridine-3-carboxamide] are 16 nM and 1 nM.
Consider `Cn1nc(C(=O)NCc2ccc(C#N)cc2)c2c1C(=O)N(CC1(S(=O)(=O)C(C)(C)CO)CC1)CC2` [Example 52, N-(4-Cyanobenzyl)-6-((1-((1-hydroxy-2-methylpropan-2-yl)sulfonyl)cyclopropyl)methyl)-1-methyl-7-oxo-4,5,6,7-tetrahydro-1H-pyrazolo[3,4-c]pyridine-3-carboxamide], for which, in experiment [1], the EC50 was 19 nM. For the same molecule, in experiment [2] (setting [3]), the IC50 worked out at 1 nM.
Taken in the same sequence, the figures for `Cc1cc(CNC(=O)c2nn(C)c3c2CCN(CC2(S(=O)(=O)C4CC4)CC2)C3=O)ccc1C#N` [Example 11, N-(4-Cyano-3-methylbenzyl)-6-((1-(cyclopropylsulfonyl)cyclopropyl)methyl)-1-methyl-7-oxo-4,5,6,7-tetrahydro-1H-pyrazolo[3,4-c]pyridine-3-carboxamide] were 214 nM and 17 nM.
Consider `CNCCOCC(C)(C)S(=O)(=O)C1(CN2CCc3c(C(=O)NCc4ccc(C#N)cc4)nn(C)c3C2=O)CC1` [Example 101, N-(4-Cyanobenzyl)-1-methyl-6-((1-((2-methyl-1-(2-(methylamino)ethoxy)propan-2-yl)sulfonyl)cyclopropyl)methyl)-7-oxo-4,5,6,7-tetrahydro-1H-pyrazolo[3,4-c]pyridine-3-carboxamide], for which the EC50 in experiment [1] is 9 nM. In experiment [2] (setting [4]), this molecule came in with an IC50 of 1 nM.

The term EC50 denotes the concentration needed to bring the measured effect to its halfway point. What is called IC50 is the concentration at which inhibition is half-maximal.
